Assay results published in patent publication US12551481B2, “Molecular targets for addiction” (The Jackson Laboratory, priority 2019, dated 2026).

Test system: Htr1d expression
Assay: Htr1d expression in founder strains of CC/DO mice after repeated exposure to cocaine or sham (saline)
Assay type: in vivo, mouse
Settings: CAST/EiJ males and 129S1/SvlmJ males; repeated exposure over days
From the text: Identification of a target for addiction treatment was undertaken using Diversity Outbred (DO) stock of mice and the eight founding inbred strains used to generate the DO stock, which are a genetically diverse collect of mice used to validate […] trait loci (QTLs) linked to disease susceptibility, drug resistance, or behavioral phenotypes (see, e.g., Saul et al., 2019, Trends in Genetics (PMID: 31133439)). DO mice were developed by random outcross mating of 160 incipient Collaborative Cross recombinant inbred mouse lines, which were created by crossing eight unique and genetically diverse inbred mouse strains. […] Upregulation after cocaine exposure was also observed in PWK/PhJ males.

## COC(=O)[C@H]1[C@@H](OC(=O)c2ccccc2)C[C@@H]2CC[C@H]1N2C [cocaine]
  Htr1d expression differences, cocaine compared to sham: 2 fold
